Data reported in patent EP1920756A1, “Cosmetic matrix for a preservative-free cosmetic formulation” (SYRIO PHARMA S.P.A., priority 2006, dated 2008).
“And” between values parts separate entries of the source, which are not always exact repeats. Equal entries are not always repeated. Where two headings read alike, the source gives them in different places.

How the values were obtained:
[1] = in contact with healthy and intact skin; cited from earlier work
CD80 (B7.1) = conditions: for CD80 (MFI*): THP-1, 48 hours, corrected by the negative control
Procedure: (§1) The test consisted in evaluating the pro-sensitising stimulus on human monocytes. It was deemed appropriate to use a cell model to evaluate the immunological reactivity of typical immunological cells (monocytes in this case) exposed for a prolonged time (48h) to the tested product in two different concentrations
(§2) The test was thus performed on a monocytes cell line named THP-1, as such a cell type is highly involved in the immunological responses of skin, which is the target organ of the tested cream. […] Nickel is in fact able to trigger in vivo allergising-type immunological reactions (contact sensitising).
(§3) The technique is based on the fact that the recognition of the antigen by the TCR (T Cell Receptor) of T lymphocytes (signal 1) is not functional to the maturation of an effective immune response, if it doesn't occur at the membrane of an antigen-presenting cell able to provide an additional signal (signal 2 or costimulus) qualitatively necessary for the definition of the response type (humoral, cellular, etc). Both B7.1 and B7.2 (collectively: B7) are membrane glycoproteins which are present on the surface of several antigen-presenting cells (dendritic cells, Langerhans cells, monocytes/macrophages, other cell lines such as keratinocytes) and serve as costimula. In fact, both these molecules are ligands of a glycoprotein named CD28, which are present on the T lymphocyte membrane. The triggering of the ligand/receptor system CD28B7 avoids the T cell apoptosis (i.e. the programmed cell death) and cooperates to sustain their proliferation and differentiation. In the first steps of the "physiological" immune response, B7.2 is expressed constitutively and modulates both the Th1 and Th2 responses.
(§4) An increase in expression of these co-stimulatory molecules on monocytes is thus a signal of activation of an immune response the exposure in consequence of a potentially allergising antigen. Functionally, in fact, the expression of co-stimulatory molecules on this cell type corresponds to the competence acquisition for expressing the antigen in the typical location (skin in this case) in which a contact sensitization occurs in vivo.
(§5) They were subjected to a preliminary cytotoxicity screening on THP-1 cells to determinate the concentration at which the substance could be used in vitro without causing cell death, event which causes false results.
(§6) Cell growth culture medium exposed to the same experimental conditions was used as a negative control. […]
(§7) After exposure, the cells were examined for their viability by staining with Trypan Blue dye and by observing under microscope in a corpuscle-counter chamber, collected, washed in a isotonic buffer (PBS) and then marked with a fluoresceinated anti-B7.1 or B7.2 antibody. After further washings to remove the excess antibody, the cells were feeded in a flux cytofluorimeter (FACS, Fluorescence Activated Cell Sorter, Becton Dickinson, Mountain View, CA) for the MFI (Mean Fluorescence Intensity) evaluation, which was proportional to the number of molecules marked per cell and therefore representative of the expression level of the tested co-stimulatory molecules.
(§8) As control (basal fluorescence), the MFI of both untreated THP-1 cells (apart from washings in PBS) and THP-1 cells reacted with a fluoresceinated monoclonal antibody (such as the anti-B7.1 and anti-B7.2), but of irrelevant specificity (isotype-matched control) was evaluated.

CD86 (B7.2) = conditions: THP-1, 48 hours, corrected by the negative control
Procedure: as §1, §2, §3, §4, §5, §6, §7, §8

[2] = test system: stabilized human keratinocytes (HaCaT cells); assay: Cytotoxicity evaluation with MTT method (UNI EN ISO 10993-5 rule); assay type: cell-based
Procedure: The test consisted in evaluating the cytotoxicity of the moisturizing cream […] aimed to be used on skin or on mucosae following the UNI EN ISO 10993-5 rule concerning the biological evaluation of medical devices. The cytotoxicity test was carried out towards the keratinocyte, the main cell component of skin and mucosae. […] The method is based on the fact that the mitochondrial dehydrogenases of viable cells are able to cleave the tetrazolium ring of MTT, leading to the formation of purple formazane crystals, which are insoluble in water. The crystals are dissolved in acidified isopropanol and the resulting purple solution is measured spectrophotometrically. An increase or decrease in viable cell number results in a concomitant change in the amount of formazan which is forming and can be considered as an indication of the degree of cytotoxicity caused by the exposure to the tested substances. The cell model employed for the in vitro test consisted of stabilized human keratinocytes (HaCaT cells). Cells were cultured in 24-well plates for 24 hours in DMEM + 10% FCS. Fresh culture medium was then added, supplemented with 10% FCS and containing a sample of the product to be tested so as to reach 6 final dilutions ranging from 5 to 0.15 mg/ml. For each sample of the cream […], three replica were performed. Untreated cells were used as negative control, and as positive control cells were treated with a surfactant with known toxicity, i.e. Sodium Lauryl Sulphate briefly referred to as SLS, dissolved in the culture medium in concentrations ranging from 0.5 mg/ml to 0.03 mg/ml. Specifically, samples with SLS amounts equal to 0.5, 0.25, 0.12, 0.06 and 0.03 mg/ml and […] amounts of 5, 2.5, 1.25, 0.6, 0.3, 0.15 mg/ml were prepared. At the end of treatment, the citotoxicity test (MTT) was carried out. The cells were then washed with washing solution (Dulbecco's Phosphate Buffered Saline). After removal of the solution, the MTT-culture medium was added to each well and the cells were incubated at 37°C. At the end of the incubation period, the MTT-culture medium was removed and a MTT solubilizing solution was added to each well. The plate was then stirred on a plate stirrer, while ensuring that all the crystals were dissolved and had formed a homogeneous solution. The absorbance was then read with a chromatometer equipped with a plate reader, by subtracting background reading. The result was expressed as: % cell survival = (OD treated cells × 100)/(OD untreated cells) [formula] […]

| Compound | concentration able to cause an allergic reaction in most of the sensitive subjects [1] | increase in CD80, with respect to untreated controls (CD80 (B7.1); 4 µg/ml, data not shown) | CD80 (MFI*) (CD80 (B7.1); 10 µg/ml) | CD80 (MFI*) (CD80 (B7.1); 20 µg/ml) | CD86 (MFI*) (CD86 (B7.2); 10 µg/ml) | CD86 (MFI*) (CD86 (B7.2); 20 µg/ml) | Cell viability % (vs negative control) ([2]; Dose 0.03 mg/ml, MTT, Sulphate) | Cell viability % (vs negative control) ([2]; Dose 0.06 mg/ml, MTT, Sulphate) | Cell viability % (vs negative control) ([2]; Dose 0.12 mg/ml, MTT, Sulphate) | Cell viability % (vs negative control) ([2]; Dose 0.25 mg/ml, MTT, Sulphate) | Cell viability % (vs negative control) ([2]; Dose 0.5 mg/ml, MTT, Sulphate) | IC50 ([2]; Homo sapiens, read-out: concentration of 50% inhibition of cell growth (IC50), HaCaT, MTT, theoretical value from regression curve of dose-response) | concentration of 50% inhibition of cell growth (IC50) ([2]; MTT, theoretical value from regression curve of dose-response, Sulphate) |
| --- | --- | --- | --- | --- | --- | --- | --- | --- | --- | --- | --- | --- | --- |
| O.O.O.O.O.O.O=S(=O)([O-])[O-].[Ni+2] [Nickel sulphate, Nickel Sulphate (NiSO46H2O)] | above 100 ppm | detectable increase | 19.85 and 18.33 | 29.00 and 33.48 | 37.35 and 33.26 | 77.12 and 87.92 | – | – | – | – | – | – | – |
| CCCCCCCCCCCCOS(=O)(=O)[O-].[Na+] [SLS, Sodium Lauryl Sulphate] | – | – | – | – | – | – | 87.6% and 94.7% and 98.5% and 92.7% | 61.0% and 79.6% and 76.7% and 73.9% | 2.5% and 3.9% and 0.2% and 1.9% | 2.3% and 2.9% and 0.1% and 1.5% | 2.3% and 2.2% and 0.2% and 1.2% | 60 µg/mL | 70 µg/mL and 67 µg/mL |
